Measurements taken from EPA's ToxRefDB 2.

Experiments:
rat [1] = conditions: Subchronic oral toxicity in rodents, sprague dawley, Feed, dose end: 90 day, group: systemic
dog [2] = conditions: Chronic toxicity, beagle, Oral, Feed, dose end: 52 week, group: systemic
rat [3] = conditions: Multigenerational reproductive toxicity study, other, Oral, Feed, dose end: 2 generation
rat [4] = conditions: Combined chronic toxicity/carcinogenicity, other, Oral, Feed, dose end: 24 month, group: systemic
mouse [5] = conditions: Carcinogenicity; b6c3f1; Oral; Feed; dose end: 78 week; group: systemic; systemic / in life observation / body weight / body weight gain
mouse [6] = conditions: Subchronic oral toxicity in rodents, cd1, Feed, dose end: 90 day, group: systemic, systemic / clinical chemistry / hepatic mixed function oxidase (mfo) assay / hepatic mixed function oxidase (mfo) assay + systemic / in life…
dog [7] = conditions: Subchronic oral toxicity in nonrodent, beagle, Feed, dose end: 90 day, group: systemic, systemic / clinical chemistry / cortisol / cortisol + systemic / organ weight / liver / relative to body weight + systemic / pathology …
[8] = systemic / pathology microscopic / thyroid gland / hypertrophy
[9] = systemic / pathology microscopic / thyroid gland / hypertrophy + systemic / clinical chemistry / alanine aminotransferase (alt/sgpt) / …
[10] = systemic / clinical chemistry / albumin / albumin + systemic / clinical chemistry / alkaline phosphatase (alp/alk) / alkaline phosphatase (…
[11] = systemic / hematology / hematocrit (hct) / hematocrit (hct) + systemic / hematology / hemoglobin (hgb) / hemoglobin (hgb)
[12] = group: offspring, developmental / offspring survival late / viability index / viability index + systemic / in life observation / body weight / offspring (pup…
[13] = group: parental, systemic / pathology microscopic / liver / hypertrophy + systemic / pathology microscopic / liver / vacuolization
[14] = group: reproductive, reproductive / offspring survival early / dead fetuses / dead fetuses
[15] = systemic / pathology microscopic / liver / hypertrophy + systemic / pathology microscopic / liver / vacuolization + systemic / clinical …

Structure (SMILES): OC(c1ccc(Cl)cc1)(c1ccc(Cl)cc1)C(Cl)(Cl)Cl [Dicofol]
- LEL (rat [1]; [8]): 0.64 mg/kg/day
- LOAEL (rat [1]; [8]): 0.64 mg/kg/day
- NEL (rat [1]; [9]): 0.07 mg/kg/day
- NOAEL (rat [1]; [9]): 0.07 mg/kg/day
- LOAEL (dog [2]; [10]): 5.42 mg/kg/day
- NOAEL (dog [2]; [10]): 0.85 mg/kg/day
- LEL (dog [2]; [11]): 0.12 mg/kg/day
- NEL (dog [2]; [11]): < 0.12 mg/kg/day
- LEL (rat [3]; group: offspring, developmental / offspring survival late / [other] / [other] + developmental / offspring survival late / viability index / viability index): 11.2 mg/kg/day
- NEL (rat [3]; group: offspring, developmental / offspring survival late / [other] / [other] + developmental / offspring survival late / viability index / viability index + …): 2.2 mg/kg/day
- LOAEL (rat [3]; [12]): > 23.2 mg/kg/day
- NOAEL (rat [3]; [12]): ≥ 23.2 mg/kg/day
- LEL (rat [3]; [13]): 1.9 mg/kg/day
- LOAEL (rat [3]; [13]): 1.9 mg/kg/day
- NEL (rat [3]; [13]): 0.4 mg/kg/day
- NOAEL (rat [3]; [13]): 0.4 mg/kg/day
- LEL (rat [3]; [14]): 23.2 mg/kg/day
- LOAEL (rat [3]; [14]): > 23.2 mg/kg/day
- NEL (rat [3]; [14]): 11.2 mg/kg/day
- NOAEL (rat [3]; [14]): ≥ 23.2 mg/kg/day
- LOAEL (rat [4]; systemic / pathology microscopic / liver / hypertrophy + systemic / pathology microscopic / liver / vacuolization): 2.23 mg/kg/day
- LEL (rat [4]; [15]): 2.23 mg/kg/day
- NEL (rat [4]; [15]): 0.22 mg/kg/day
- NOAEL (rat [4]; [15]): 0.22 mg/kg/day
- LEL (mouse [5]): 35 mg/kg/day
- LOAEL (mouse [5]): 35 mg/kg/day
- NEL (mouse [5]): 17 mg/kg/day
- NOAEL (mouse [5]): 17 mg/kg/day
- LEL (mouse [6]): 18.2 mg/kg/day
- LOAEL (mouse [6]): 18.2 mg/kg/day
- NEL (mouse [6]): 1.6 mg/kg/day
- NOAEL (mouse [6]): 1.6 mg/kg/day
- LEL (dog [7]): 3.3 mg/kg/day
- LOAEL (dog [7]): 3.3 mg/kg/day
- NEL (dog [7]): 0.29 mg/kg/day
- NOAEL (dog [7]): 0.29 mg/kg/day
